Tests used:
Assay in all cases: Test D controlled growth environment herbicide test, pre- and postemergence
Type in all cases: in vivo
[1] = tested on: speedwell (bird's-eye speedwell, Veronica persica)
Procedure, shortened: (§1)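 Species sown in silt loam and sprayed preemergence, or grown in peat-based medium to 2–18 cm (1- to 4-leaf stage) and sprayed postemergence, with compounds in non-phytotoxic solvent plus surfactant. Visual injury scored versus controls after 14–21 d in a controlled environment, 0 (no effect) to 100 (complete control).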

[2] = tested on: oat, wild (wild oat, Avena fatua)
Procedure, shortened: as §1

[3] = tested on: oilseed rape (Brassica napus)
Procedure, shortened: as §1

[4] = tested on: barley, spring (spring barley, Hordeum vulgare)
Procedure, shortened: as §1

[5] = tested on: chamomile (scentless chamomile, Matricaria inodora)
Procedure, shortened: as §1

[6] = tested on: lambsquarters (Chenopodium album)
Procedure, shortened: as §1

[7] = tested on: mustard, wild (wild mustard, Sinapis arvensis)
Procedure, shortened: as §1

[8] = tested on: radish, wild (wild radish, Raphanus raphanistrum)
Procedure, shortened: as §1

[9] = tested on: bromegrass, downy (downy bromegrass, Bromus tectorum)
Procedure, shortened: as §1

[10] = tested on: wheat, spring (spring wheat, Triticum aestivum)
Procedure, shortened: as §1

[11] = tested on: field violet (Viola arvensis)
Procedure, shortened: as §1

[12] = tested on: windgrass (Apera spica-venti)
Procedure, shortened: as §1

[13] = tested on: deadnettle (henbit deadnettle, Lamium amplexicaule)
Procedure, shortened: as §1

[14] = Postemergence, 31 g ai/ha, scale 0 to 100 (0 no effect, 100 complete control)
[15] = Postemergence, 125 g ai/ha, visual rating on scale 0 (no effect) to 100 (complete control), 14 to 21 d
[16] = Postemergence, 250 g ai/ha, scale 0 to 100 (0 no effect, 100 complete control)
[17] = Preemergence, 125 g ai/ha, scale 0 to 100 (0 no effect, 100 complete control)
[18] = Preemergence, 250 g ai/ha, scale 0 to 100 (0 no effect, 100 complete control)
[19] = postemergence, 62 g ai/ha, scale 0 to 100, 0 no effect, 100 complete control
[20] = Preemergence, 62 g ai/ha, scale 0 to 100 (0 no effect, 100 complete control)

CCOC(=O)Oc1c(C)nn(C)c(=O)c1-c1c(C)sc2c(C)cc(C)cc12 [Compound 83]
90: Plant response rating, Oat, Wild [2, 15] | Plant response rating, Oat, Wild [2, 17] | Plant response rating, Oat, Wild [2, 18] | Plant response rating, Radish, Wild [8, 17] | Plant response rating, Radish, Wild [8, 18] | Plant response rating, Radish, Wild [8, 19] | Field Violet plant response rating [11, 14] | Plant response rating, Windgrass [12, 15] | Plant response rating, Windgrass [12, 17]
85: Plant response rating (scale of 0 to 100), Oat, Wild ([2]; Preemergence, 62 g ai/ha) | Plant response rating, Oat, Wild [2, 19] | Plant response rating, Windgrass [12, 19]
15: Plant response rating (scale of 0 to 100), Windgrass ([12]; Preemergence, 31 g ai/ha) | Deadnettle plant response rating [13, 14] | Plant response rating, Deadnettle [13, 17]
50: Plant response rating, Bromegrass, Downy [9, 15]
60: Plant response rating, Bromegrass, Downy [9, 17] | Plant response rating, Deadnettle [13, 16]
0: Barley, Spring plant response rating [4, 14] | Plant response rating (scale of 0 to 100), Barley, Spring ([4]; Preemergence, 31 g ai/ha) | Plant response rating, Barley, Spring [4, 20] | Plant response rating, Barley, Spring [4, 17] | Plant response rating (scale of 0 to 100), Mustard, Wild ([7]; Preemergence, 31 g ai/ha) | Plant response rating (scale of 0 to 100), Mustard, Wild ([7]; Preemergence, 62 g ai/ha) | Wheat, Spring plant response rating [10, 14] | Plant response rating (scale of 0 to 100), Wheat, Spring ([10]; Preemergence, 31 g ai/ha) | Plant response rating (scale of 0 to 100), Wheat, Spring ([10]; Preemergence, 62 g ai/ha) | Plant response rating, Wheat, Spring [10, 19] | Plant response rating (scale of 0 to 100), Deadnettle ([13]; Preemergence, 31 g ai/ha) | Plant response rating (scale of 0 to 100), Deadnettle ([13]; Preemergence, 62 g ai/ha)
20: Plant response rating (scale of 0 to 100), Bromegrass, Downy ([9]; Preemergence, 31 g ai/ha) | Plant response rating, Wheat, Spring [10, 16]
35: Plant response rating, Mustard, Wild [7, 17] | Plant response rating, Bromegrass, Downy [9, 19] | Plant response rating, Wheat, Spring [10, 18]
5: Plant response rating (scale of 0 to 100), Oilseed Rape ([3]; Preemergence, 31 g ai/ha) | Plant response rating (scale of 0 to 100), Oilseed Rape ([3]; Preemergence, 62 g ai/ha) | Plant response rating, Barley, Spring [4, 15] | Plant response rating, Barley, Spring [4, 18] | Plant response rating, Barley, Spring [4, 19] | Plant response rating, Wheat, Spring [10, 15]
25: Mustard, Wild plant response rating [7, 14] | Plant response rating, Mustard, Wild [7, 18] | Plant response rating, Mustard, Wild [7, 19] | Bromegrass, Downy plant response rating [9, 14] | Plant response rating, Deadnettle [13, 19]
30: Plant response rating (scale of 0 to 100), Radish, Wild ([8]; Preemergence, 31 g ai/ha) | Plant response rating, Bromegrass, Downy [9, 20]
80: Oat, Wild plant response rating [2, 14] | Plant response rating (scale of 0 to 100), Oat, Wild ([2]; Preemergence, 31 g ai/ha) | Plant response rating (scale of 0 to 100), Field Violet ([11]; Preemergence, 62 g ai/ha) | Plant response rating, Field Violet [11, 19]
55: Plant response rating, Deadnettle [13, 15]
95: Plant response rating, Oat, Wild [2, 16] | Plant response rating, Oilseed Rape [3, 16] | Chamomile plant response rating [5, 14] | Lambsquarters plant response rating [6, 14] | Plant response rating (scale of 0 to 100), Lambsquarters ([6]; Preemergence, 31 g ai/ha) | Plant response rating, Field Violet [11, 17] | Plant response rating, Windgrass [12, 16] | Plant response rating, Windgrass [12, 18]
10: Plant response rating, Oilseed Rape [3, 17] | Plant response rating, Oilseed Rape [3, 18] | Plant response rating, Barley, Spring [4, 16] | Plant response rating, Wheat, Spring [10, 17]
40: Plant response rating, Bromegrass, Downy [9, 18]
70: Plant response rating (scale of 0 to 100), Speedwell ([1]; Preemergence, 31 g ai/ha) | Plant response rating, Speedwell [1, 19] | Plant response rating, Oilseed Rape [3, 19] | Plant response rating, Mustard, Wild [7, 16] | Plant response rating (scale of 0 to 100), Radish, Wild ([8]; Preemergence, 62 g ai/ha) | Plant response rating, Bromegrass, Downy [9, 16]
75: Plant response rating, Speedwell [1, 15] | Plant response rating (scale of 0 to 100), Speedwell ([1]; Preemergence, 62 g ai/ha) | Plant response rating, Oilseed Rape [3, 15] | Radish, Wild plant response rating [8, 14] | Plant response rating (scale of 0 to 100), Field Violet ([11]; Preemergence, 31 g ai/ha) | Windgrass plant response rating [12, 14] | Plant response rating (scale of 0 to 100), Windgrass ([12]; Preemergence, 62 g ai/ha)
65: Speedwell plant response rating [1, 14] | Oilseed Rape plant response rating [3, 14] | Plant response rating (scale of 0 to 100), Lambsquarters ([6]; Preemergence, 62 g ai/ha) | Plant response rating, Mustard, Wild [7, 15]
100: Plant response rating, Speedwell [1, 16] | Plant response rating, Speedwell [1, 17] | Plant response rating, Speedwell [1, 18] | Plant response rating, Chamomile [5, 15] | Plant response rating, Chamomile [5, 16] | Plant response rating, Chamomile [5, 19] | Plant response rating, Lambsquarters [6, 15] | Plant response rating, Lambsquarters [6, 16] | Plant response rating, Lambsquarters [6, 17] | Plant response rating, Lambsquarters [6, 18] | Plant response rating, Lambsquarters [6, 19] | Plant response rating, Radish, Wild [8, 15] | Plant response rating, Radish, Wild [8, 16] | Plant response rating, Field Violet [11, 15] | Plant response rating, Field Violet [11, 16] | Plant response rating, Field Violet [11, 18] | Plant response rating, Deadnettle [13, 18]
